GI50 and IC50 data for 14 compounds are collected here from US20070276017A1, “Thiadiazoline Derivative” (priority 2003, published 2007).

One may read the IC50 as the concentration at which inhibition is half-maximal.

Experiment [1] has as its system HCT 116 human colon carcinoma cells. The experiment is described as follows: Antiproliferative activity against HCT 116 human colon carcinoma cells (XTT, 72 hours). The experiment is classed as cell-based. To be noted: read-out: GI50, concentration of compound which induces 50% inhibition of cell proliferation, HCT 116 cells, 72 hours incubation. Here is the method:
HCT 116 cells (ATCC No.: CCL-247) were placed on a 96-well microtiter plate (Nunc, 167008) at a density of 1×10^3 cells/well. The plate was incubated in a 5% CO2 incubator at 37° C. for 24 hours, and then to the plate was added test compounds diluted stepwise to […] in total, and the plate was further incubated in a 5% CO2 incubator at 37° C. for 72 hours. To the culture medium, the XTT (sodium 3′-[1-(phenylaminocarbonyl)-3,4-tetrazolium]-bis(4-methoxy-6-nitro)benzenesulfonic acid hydrate) labeling mixture (Roche Diagnostics, 1465015) was dispensed in […] portions, then the plate was incubated in a 5% CO2 incubator at 37° C. for 1 hour, and the absorbance was measured at 490 nm and 655 nm with a microplate spectrophotometer (Bio-Rad, Model 550).
GI50 calculation method: The value (difference in absorbance) was calculated by subtracting the absorbance at 655 nm from the absorbance at 490 nm of each well.
In general terms: Formazan colour is commonly taken as a measure of viable cells.

The target of another experiment is T1, human Eg5 motor domain (Homo sapiens, UniProt P52732).
T1 construct: A plasmid expressing the motor domain of human Eg5 was constructed; made in house; host or cells: Escherichia coli BL21 (DE3)
T1 sequence (P52732 18-359 limits assumed): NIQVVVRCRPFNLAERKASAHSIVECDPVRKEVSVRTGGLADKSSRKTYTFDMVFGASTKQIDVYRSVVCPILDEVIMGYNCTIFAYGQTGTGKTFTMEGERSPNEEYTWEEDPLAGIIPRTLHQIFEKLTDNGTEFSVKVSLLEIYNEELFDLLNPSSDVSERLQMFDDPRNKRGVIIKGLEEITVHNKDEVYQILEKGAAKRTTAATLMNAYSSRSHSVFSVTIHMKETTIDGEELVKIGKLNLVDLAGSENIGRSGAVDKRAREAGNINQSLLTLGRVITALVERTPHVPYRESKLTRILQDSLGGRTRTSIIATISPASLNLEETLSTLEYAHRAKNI
The experiment is described as follows: Eg5 enzyme inhibition test (2): ATPase activity of recombinant human Eg5 motor domain. The experiment is classed as biochemical. To be noted: tubulin/paclitaxel, 30° C. for 30 minutes, concentration-dependent inhibition. Here is the method: A recombinant human Eg5 motor domain protein was prepared by referring to the literature [Biochemistry, Vol. 35, p. 2365 (1996)]. A plasmid expressing the motor domain of human Eg5 was constructed, and transformed into Escherichia coli BL21 (DE3). The transformant was cultured at 25° C., and when the OD600 reached 0.74, isopropyl-β-D-thiogalactoside was added at a final concentration of 0.5 mmol/L. The transformant was further cultured for 4 hours, and then the culture medium was centrifuged to collect the cells. The cells were suspended in a buffer and ultrasonicated, and then the sonicated solution was centrifuged to recover the supernatant. The supernatant was purified by cation exchange column chromatography to obtain a partially purified sample. Furthermore, the partially purified sample was purified by gel filtration column chromatography to obtain a finally purified sample.
Measurement of the ATPase activity of Eg5 was carried out by referring to the literatures [EMBO Journal, Vol. 13, p. 751 (1994); Proc. Natl. Acad. Sci. USA, Vol. 89, p. 4884 (1992)]. The following two kinds of solutions were prepared: Solution A consisting of 25 mmol/L piperazine N,N′-bis(ethanesulfonate) (PIPES)/KOH (pH 6.8), 1 mmol/L ethylene glycol-bis(2-aminoethyl ether)tetraacetic acid (EGTA), 2 mmol/L MgCl2, 1 mmol/L dithiothreitol (DTT), 5 μmol/L paclitaxel, 167 μg/mL bovine serum albumin (BSA), 41.7 μg/mL tubulin (Cytoskeleton, Catalog No. TL238), 333 μmol/L MESG substrate (2-amino-6-mercapto-7-methylpurine riboside) (Molecular Probes, Catalog Number E-6646), 1.67 U/mL purine nucleoside phosphorylase (Molecular Probe, Catalog No. E-6646) and 1.33 μg/mL of the human Eg5 motor domain purified sample, and Solution B consisting of 25 mmol/L piperazine N,N′-bis(ethanesulfonate) (PIPES)/KOH (pH 6.8), 1 mmol/L ethylene glycol-bis(2-aminoethyl ether)tetraacetic acid (EGTA), 2 mmol/L MgCl2, 1 mmol/L dithiothreitol (DTT), 5 μmol/L paclitaxel and 2.5 mmol/L ATP. Solution A was dispensed into each well of a 96-well plate as 45 μL portions. Solution B was used to serially dilute a test compound. The diluted test compound solutions in a volume of 30 μL were mixed with Solution A added beforehand in each well of the 96-well plate to start the enzymatic reaction. The enzymatic reaction was performed at 30° C. for 30 minutes. Absorbance at 360 nm, which serves as an index of the ATPase activity, was measured using a plate reader (Molecular Device, SpectraMax 340PC^384). The absorbance observed in the presence of Eg5 and absence of the test compound was defined 100%, and the absorbance observed in the absence of both Eg5 and the test compound was defined 0%. The relative activity was calculated to calculate IC50 value.

SMILES strings stand for the structures.

With `CC(=O)N1N=C(N2CCCCC2=O)SC1(CCNC(=O)CCCN(C)C)c1ccccc1` (stereo not drawn) [Compound 144], in experiment [1], the GI50 was below 10 µM. For the same compound, the IC50 on human Eg5 motor domain is at most 5 µM. The like results for `CC(C)(C)C(=O)NC1=NN(C(=O)C(C)(C)C)C(CCNCCCN2CCCC2=O)(c2ccccc2)S1` (stereo not drawn) [Compound 9] were, in that order, 0.065 µM and at most 5 µM. As to `CC(C)(C)C(=O)N1N=C(N2CCCCC2=O)SC1(CCCN)c1ccccc1` (stereo not drawn) [Compound 83], the 50% inhibitory concentration (IC50) at human Eg5 motor domain was at most 5 µM. The same measure, in the same setting: next, `CC(C)(C)C(=O)NC1=NN(C(=O)C(C)(C)C)C(CCCNCCCO)(c2ccccc2)S1` (stereo not drawn) [Compound 29]: at most 5 µM.

As to `CNCCCC1(c2ccccc2)SC(NC(=O)C(C)(C)C)=NN1C(=O)C(C)(C)C` (stereo not drawn) [Compound 23], the IC50 at human Eg5 motor domain was at most 5 µM. With `CC(C)(C)C(=O)NC1=NN(C(=O)C(C)(C)C)C(COC(=O)NCCN2CCCC2)(c2ccccc2)S1` (stereo not drawn) [Compound 181], the GI50 in experiment [1] is below 10 µM. Moreover, the IC50 on human Eg5 motor domain is at most 5 µM.

`CN(C)CCS(=O)(=O)NCCCC1(c2ccccc2)SC(N2CCCCC2=O)=NN1C(=O)C(C)(C)C` (stereo not drawn) [Compound 85]: the GI50 in experiment [1] was below 10 µM. For the same compound, at human Eg5 motor domain, the IC50 is at most 5 µM. For `COC(=O)N1CCN(CCCC2(c3ccccc3)SC(NC(=O)C(C)(C)C)=NN2C(=O)C(C)(C)C)CC1` (stereo not drawn) [Compound 122], in that order: below 10 µM and at most 5 µM. Regarding `CC(C)(C)C(=O)NC1=NN(C(=O)C(C)(C)C)C(CCCNC(=O)CN)(c2ccccc2)S1` (stereo not drawn) [Compound 73], the concentration for half-maximal inhibition (IC50) on human Eg5 motor domain was at most 5 µM. Still for that read-out and setting: next, `CCOCCNCCC1(c2ccccc2)SC(NC(=O)C(C)(C)C)=NN1C(=O)C(C)(C)C` (stereo not drawn) [Compound 3]: at most 5 µM.

On to `CC(C)(C)C(=O)NC1=NN(C(=O)C(C)(C)C)C(CCCNC(CO)CO)(c2ccccc2)S1` (stereo not drawn) [Compound 76], for which, in experiment [1], the GI50 is below 10 µM. The IC50 on human Eg5 motor domain was at most 5 µM. For `CC(C)(C)C(=O)NC1=NN(C(=O)C(C)(C)C)C(CCNC(=O)C2CCCN2)(c2ccccc2)S1` (stereo not drawn) [Compound 59], in that order: below 10 µM and at most 5 µM. For the compound `CC(=O)N1N=C(NC(=O)C(C)(C)C)SC1(CCCN)c1ccccc1` (stereo not drawn) [Compound 88], on human Eg5 motor domain, the half-inhibitory concentration (IC50) is at most 5 µM. The same measure, in the same setting: next, `CC(=O)N1N=C(N2CCCC2=O)SC1(CCCN)c1ccccc1` (stereo not drawn) [Compound 90]: at most 5 µM.
